Values quoted from earlier work as cited in article PMC5483895 (Journal of Medicinal Chemistry, 2017).
Like-named read-outs stand apart in the source and are kept apart here. One block for each molecule: values may come before it.

Legend:
CXCR4 [1] = details: mutation of H203 5.42 in CXCR4, range over the ligands named
CXCR4 [2] = details: CXCR4 virtual screening hits
CCR5 [3] = details: mutation of I198 5.42 in CCR5, range over all ligands named
CXCR3 [4] = details: CXCR3 mutant Y271 6.51 A
CXCR3 [5] = details: CXCR3 mutant W268 6.48 A
CCR5 [6] = test system: CCR5
CXCR4 [7] = details: CXCR4 mutant I259 6.55 A
CX3CR1 = details: mutations of Lys14, Lys18, Phe49 of the chemokine

Molecule: c1ccc(CNCc2ccc(CN3CCCNCCNCCCNCC3)cc2)nc1 [compound 2]
fold effect on affinity/potency (CXCR4 [1]): 3–5 fold

Molecule: Cc1nc(CN(C)CC2CCCN(CCc3ccccc3C)C2)c[nH]1 (stereo not shown) [compound 78]
affinity (CXCR4 [2]): 0.31 µM

Molecule: Cc1ccc(-c2ccc3c(c2)C=C(C(=O)Nc2ccc(C[N+](C)(C)C4CCOCC4)cc2)CCC3)cc1.[Cl-] [compound 19]
fold decrease in affinity and/or potency (CCR5 [3]): 3–125 fold

Molecule: Cc1ccc(-c2nc3n(c2/C=N/N=C(N)N)CCS3)cc1 [compound 76]
affinity (CXCR4 [2]): 225 µM

fold decrease of binding (CXCR3 [4]): more than 10 fold
Molecule: CXCL11: chemokine, CXCR3 ligand
fold decrease of potency (CXCR3 [5]): more than 10 fold

fold effect on binding (CCR5 [6]; CCR5 mutant W248 6.48 A): 10 fold
fold effect on binding (CCR5 [6]; CCR5 mutant Y251 6.51 A/I): 7 fold
Molecule: CCL3: CC chemokine

Molecule: CC#CCN1C(=O)[C@H]([C@@H](O)C2CCCCC2)NC(=O)C12CCN(Cc1c(C)nn(-c3ccccc3)c1C)CC2 [compound 23]
fold decrease in affinity and/or potency (CCR5 [3]): 3–125 fold

Molecule: CXCL12: endogenous chemokine ligand of CXCR4
fold effect on potency (CXCR4 [7]): 8 fold

Molecule: Maraviroc [compound 16]
fold decrease in affinity and/or potency (CCR5 [3]): 3–125 fold

Molecule: COC[C@@H](c1ccc(C(F)(F)F)cc1)N1CCN(C2(C)CCN(C(=O)c3c(C)ncnc3C)CC2)C[C@@H]1C [compound 17, Vicriviroc]
fold decrease in affinity and/or potency (CCR5 [3]): 3–125 fold

fold reduction of affinity for the receptor (CX3CR1): more than 10 fold
B1: CX3CL1: human CX3C chemokine (protein, UniProt P78423 25-397, looked up)
Fractalkine: QHHGVTKCNITCSKMTSKIPVALLIHYQQNQASCGKRAIILETRQHRLFCADPKEQWVKDAMQHLDRQAAALTRNGGTFEKQIGEVKPRTTPAAGGMDESVVLEPEATGESSSLEPTPSSQEAQRALGTSPELPTGVTGSSGTRLPPTPKAQDGGPVGTELFRVPPVSTAATWQSSAPHQPGPSLWAEAKTSEAPSTQDPSTQASTASSPAPEENAPSEGQRVWGQGQSPRPENSLEREEMGPVPAHTDAFQDWGPGSMAHVSVVPVSSEGTPSREPVASGSWTPKAEEPIHATMDPQRLGVLITPVPDAQAATRRQAVGLLAFLGLLFCLGVAMFTYQSLQGCPRKMAGEMAEGLRYIPRSCGSNSYVLVPV
